Measurements reported in patent US11464802B2, “3-substituted piperidine compounds for Cbl-b inhibition, and use thereof” (Nurix Therapeutics, Inc., priority 2019, dated 2022).

Tests used:
Cbl-b [1] = biological target: T1, Cbl-b (Homo sapiens (Human), UniProt Q13191); experiment: Cbl-b displacement assay (Cbl-b inhibition assay), TR-FRET probe displacement, Biological Example 1; type: binding
In short: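 TR-FRET displacement of a BODIPY FL-labelled inhibitor probe (150 nM, ~EC40) from biotin-Avitag truncated Cbl-b, detected via 2 nM streptavidin-Tb, 1 h, room temperature. Compound in 1% DMSO pre-incubated 1 h with Cbl-b at 0.5 nM (High) or 0.125 nM (Low) in 20 mM HEPES pH 7.5, 150 mM NaCl, 0.5 mM TCEP.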

[2] = system: primary human total T-cells; experiment: Primary human total T-cell activation: CD25 surface staining, Biological Example 2; type: cell-based; conditions: 48 hours, fold change over baseline; for fold induction at 0.3 µM: inhibitor 0.3 μM; for fold induction at 1 µM: inhibitor 1 μM; for fold induction at 3 µM: inhibitor 3 μM
[3] = system: primary human total T-cells; experiment: Primary human total T-cell activation: IL-2 secretion, Biological Example 2; type: cell-based; conditions: 48 hours, fold change over baseline; for fold induction at 0.3 µM: inhibitor 0.3 μM; for fold induction at 1 µM: inhibitor 1 μM; for fold induction at 3 µM: inhibitor 3 μM
Cbl-b [4] = biological target: T1, Cbl-b; experiment: Cbl-b displacement assay (Cbl-b inhibition assay), Biological Example 8; type: binding; conditions: 0.125 nM Cbl-b final concentration (Low); Table 8-1; read-out: Cbl-b IC50 (Low)
Method: (§1) Candidate compounds were evaluated for their ability to bind and inhibit Cbl-b, an E3 ubiquitin-protein ligase, as evidenced by their ability to displace a fluorophore-labeled probe bound to Cbl-b.
(§2) The ability of candidate compounds to displace a known inhibitor and thereby inhibit Cbl-b activity was measured by monitoring the interaction of Cbl-b with a fluorophore-labeled probe in the presence of the candidate compound. A truncated variant of Cbl-b (UniProt number Q13191) containing residues 36-427 and an Avitag at its N-terminus was co-expressed with BirA biotin ligase and purified using a standard protocol (see Dou et al., Nature Structural and Molecular Biology 8: 982-987, 2013; Avidity LLC).
(§3) Fluorescently-labeled inhibitor probe was synthesized and tagged with BODIPY FL. Cbl-b displacement assays were performed in a 384-well plate at room temperature in a 10 μl reaction volume by pre-incubating 0.5 nM Cbl-b or 0.125 nM Cbl-b (final concentration, indicated as “High” and “Low”, respectively) in an assay buffer containing 20 mM HEPES pH 7.5, 150 mM NaCl, 0.01% Triton X-100, 0.01% BSA and 0.5 mM TCEP in the presence of a candidate compound in 1% DMSO (final concentration) for 1 hour. After incubation in the presence of the candidate compound, the plate was incubated for an additional 1 hour in the presence of an approximate EC40 binding saturation consisting of 150 nM fluorescently-labeled inhibitor probe and 2 nM Streptavidin-Terbium (Cisbio) (final concentrations). Following the 1 hour incubation, the plates were read for TR-FRET signal at 520/620 nM using an Envision plate reader (Perkin Elmer).
(§4) The resulting data for the Cbl-b activity assays were analyzed using standard methods to determine the IC50 values for the tested compounds.

Cbl-b [5] = biological target: T1, Cbl-b; experiment: Cbl-b displacement assay (Cbl-b inhibition assay), Biological Example 12; type: binding; conditions: 0.125 nM Cbl-b final concentration (Low); Table 12-1; read-out: Cbl-b IC50 (Low)
Method: as §1, §2, §3, §4

[6] = 0.125 nM Cbl-b final concentration (Low), read-out: Cbl-b activity IC50 (Low)
[7] = anti-CD3/anti-CD28 co-stimulation
[8] = anti-CD3/anti-CD28 co-stimulation, read-out: CD25 staining CD3/CD28 1 μM
[9] = anti-CD3 alone, read-out: CD25 staining CD3 1 μM
[10] = anti-CD3/anti-CD28 co-stimulation, read-out: IL-2 secretion CD3/CD28 1 μM
[11] = anti-CD3 alone, read-out: IL-2 secretion CD3 1 μM
[12] = Cbl-b concentration (High or Low) not given, read-out: IC50 values in the Cbl-b inhibition assay of Biological Example 1

T1 sequence (Q13191 36-427): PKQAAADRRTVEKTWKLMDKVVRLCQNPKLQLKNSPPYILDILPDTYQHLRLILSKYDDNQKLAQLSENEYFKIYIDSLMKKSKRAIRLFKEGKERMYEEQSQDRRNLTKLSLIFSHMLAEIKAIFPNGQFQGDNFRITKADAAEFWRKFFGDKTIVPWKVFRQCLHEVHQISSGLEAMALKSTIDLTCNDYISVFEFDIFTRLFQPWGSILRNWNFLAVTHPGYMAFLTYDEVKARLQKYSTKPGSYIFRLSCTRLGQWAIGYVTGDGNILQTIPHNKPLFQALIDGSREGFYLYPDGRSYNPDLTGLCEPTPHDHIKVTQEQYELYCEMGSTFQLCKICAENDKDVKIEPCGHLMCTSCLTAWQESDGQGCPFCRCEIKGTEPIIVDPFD

SMILES	IC50 (Cbl-b [1]; [6]) [nM]	fold induction at 0.3 µM [2, 7]	fold induction at 1 µM [2, 8]	fold induction at 1 µM [2, 9]	fold induction at 3 µM ([2]; anti-CD3 alone)	fold induction at 0.3 µM [3, 7]	fold induction at 1 µM [3, 10]	fold induction at 1 µM [3, 11]	fold induction at 3 µM ([3]; anti-CD3 alone)	IC50 (Cbl-b [1]; [12]) [nM]	IC50 (Cbl-b [4]) [nM]	IC50 (Cbl-b [5]) [nM]	IC50 (Cbl-b [1]; 0.5 nM Cbl-b final concentration (High), read-out: Cbl-b activity IC50 (High)) [nM]
Cn1cnnc1CC1(c2cccc(N3Cc4c(cc(CN5CCCC(C)(F)C5)cc4C(F)(F)F)C3=O)c2)COC1 (stereo in doubt) [Compound 5, (R)-6-((3-fluoro-3-methylpiperidin-1-yl)methyl)-2-(3-(3-((4-methyl-4H-1,2,4-triazol-3-yl)methyl)oxetan-3-yl)phenyl)-4-(trifluoromethyl) isoindolin-1-one]	5.1 to 100	> 1.39	> 1.39	> 1.14	> 1.14	11 to 15	> 15	< 0.33	0.34 to 0.66	–	–	–	–
C[C@H]1CCCN(Cc2cc3c(c(C(F)(F)F)c2)CN(c2cccc(C4(Cc5nncn5C(F)F)COC4)c2)C3=O)C1 [Compound 36, 2-[3-(3-{[4-(difluoromethyl)-1,2,4-triazol-3-yl]methyl}oxetan-3-yl)phenyl]-6-{[(3S)-3-methylpiperidin-1-yl]methyl}-4-(trifluoromethyl)-3H-isoindol-1-one]	< 1	> 1.39	> 1.39	> 1.14	> 1.14	> 15	> 15	> 0.66	> 0.66	< 1	–	–	–
C[C@H]1CCCN(Cc2cc3c(c(C(F)(F)F)c2)CN(c2cc(C4(Cc5nncn5C)COC4)ccn2)C3=O)C1 [Compound 48, (S)-2-(4-(3-((4-methyl-4H-1,2,4-triazol-3-yl)methyl)oxetan-3-yl)pyridin-2-yl)-6-((3-methylpiperidin-1-yl)methyl)-4-(trifluoromethyl)isoindolin-1-one]	1 to 5	> 1.39	> 1.39	> 1.14	> 1.14	> 15	> 15	> 0.66	> 0.66	1 to 5	–	–	–
C[C@@H]1CN(Cc2cc3c(c(C4CC4)n2)CN(c2cccc(C4(Cc5nncn5C)COC4)c2)C3=O)CCC1(F)F [Compound 34, (R)-4-Cyclopropyl-6-((4,4-difluoro-3-methylpiperidin-1-yl)methyl)-2-(3-(3-((4-methyl-4H-1,2,4-triazol-3-yl)methyl)oxetan-3-yl)phenyl)-2,3-dihydro-1H-pyrrolo[3,4-c]pyridin-1-one]	1 to 5	–	–	–	–	–	–	–	–	–	1 to 5	1 to 5	–
Cn1cnnc1CC1(c2cccc(N3Cc4c(cc(CN5CC(C(F)(F)F)C[C@H](C(F)(F)F)C5)cc4C(F)(F)F)C3=O)c2)COC1 (stereo partly drawn) [Compound 21, cis-6-{[3,5-bis(trifluoromethyl)piperidin-1-yl]methyl}-2-(3-{3-[(4-methyl-1,2,4-triazol-3-yl)methyl]oxetan-3-yl}phenyl)-4-(trifluoromethyl)-3H-isoindol-1-one]	5.1 to 100	1.25 to 1.39	1.25 to 1.39	< 1.04	< 1.04	< 10	< 10	< 0.33	< 0.33	5.1 to 100	–	–	–
Cn1cnnc1CC1(c2cccc(N3Cc4c(cc(CN5CCCC(C)(F)C5)cc4C(F)(F)F)C3=O)c2)COC1 (stereo in doubt) [Compound 6, (S)-6-((3-fluoro-3-methylpiperidin-1-yl)methyl)-2-(3-(3-((4-methyl-4H-1,2,4-triazol-3-yl)methyl)oxetan-3-yl)phenyl)-4-(trifluoromethyl)isoindolin-1-one]	5.1 to 100	> 1.39	> 1.39	> 1.14	> 1.14	< 10	> 15	< 0.33	0.34 to 0.66	–	–	–	–
C[C@@H]1CN(Cc2cc3c(c(C(F)(F)F)c2)CN(c2cccc(C4(Cc5nncn5C(F)F)COC4)c2)C3=O)CCC1(F)F [Compound 31, (R)-6-((4,4-difluoro-3-methylpiperidin-1-yl)methyl)-2-(3-(3-((4-(difluoromethyl)-4H-1,2,4-triazol-3-yl)methyl)oxetan-3-yl)phenyl)-4-(trifluoromethyl)isoindolin-1-one]	1 to 5	> 1.39	> 1.39	< 1.04	< 1.04	> 15	> 15	> 0.66	> 0.66	1 to 5	–	–	–
C[C@H]1C[C@@H](CO)CN(Cc2cc3c(c(C(F)(F)F)c2)CN(c2cccc(C4(Cc5nncn5C)COC4)c2)C3=O)C1 (relative stereo) [Compound 23, cis-6-{[3-(hydroxymethyl)-5-methylpiperidin-1-yl]methyl}-2-(3-{3-[(4-methyl-1,2,4-triazol-3-yl)methyl]oxetan-3-yl}phenyl)-4-(trifluoromethyl)-3H-isoindol-1-one]	< 1	> 1.39	> 1.39	1.05 to 1.14	1.05 to 1.14	> 15	> 15	> 0.66	> 0.66	< 1	–	–	–
C[C@H]1CN(Cc2cc(C(=O)Nc3cccc(C4(Cc5nncn5C)COC4)c3)nc(C3CC3)c2)CCC1(F)F [Compound 33, 6-cyclopropyl-4-{[(3S)-4,4-difluoro-3-methylpiperidin-1-yl]methyl}-N-(3-{3-[(4-methyl-1,2,4-triazol-3-yl)methyl]oxetan-3-yl}phenyl)pyridine-2-carboxamide]	–	< 1.24	< 1.24	1.05 to 1.14	1.05 to 1.14	11 to 15	11 to 15	< 0.33	0.34 to 0.66	–	–	–	1 to 5
